# Laboratory results reported in the supplement of paper PMC10307832.
# Compound: CC1=CC(=CC=C1)NC2=NC(=CS2)C3=CC=NC=C3 + C[C@]1(O)C[C@@H](c2nc(-c3ccc4ccc(-c5ccccc5)nc4c3)c3c(N)nccn32)C1 [Linsitinib] (partner 1 µM)
# Assay: relative viability (nuclei count vs DMSO), 5 days (fraction); higher = more cells survive
# Conditions: first compound 8 µM
# Outline: (§1)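 Each reported value is a median over duplicate plates. It expresses relative viability: treated-well nuclei count divided by vehicle-well nuclei count. Lung cancer cell lines in 1536-well plates were dosed by pin tool a day after seeding, alone with one drug or with a fixed anchor-drug dose plus five library-drug doses (not always all listed) in √10 steps, and nuclei were counted after 5 days.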
row,Cell Line,relative viability
1,NCI-H2085,0.578
2,HCC-15,0.754
3,NCI-H1944,1.12
4,PC-3 [JPC-3],0.91
5,EKVX,0.705
6,LC-2-ad,0.739

# Compound: Cc1ccc(NC(=O)c2ccc(CN3CCN(C)CC3)cc2)cc1Nc1nc(-c2cccnc2)cs1 [Masitinib] + COc1cccc2cc(-c3nc([C@H]4CC[C@H](C(=O)O)CC4)n4ncnc(N)c34)[nH]c12 [OSI-027] (partner 0.5 µM)
# Assay: as above
# Conditions: first compound 0.01 µM
# Outline: as §1
row,Cell Line,relative viability
1,LXF-289,0.747
2,BEN,0.306
3,HCC-78,0.36
4,NCI-H2023,0.387
5,NCI-H460,0.796
6,NCI-H727,0.523
7,NCI-H520,0.267
8,NCI-H2405,0.62
9,SW 1573,0.646
10,201T,0.792
11,NCI-H1975,0.937
12,HCC-827,0.728
13,NCI-H2347,0.403
14,NCI-H1355,0.345
15,NCI-H650,0.538
16,CAL-12T,0.682
17,EPLC-272H,0.257
18,NCI-H23,0.49
19,NCI-H1437,0.768
20,NCI-H322M,0.64
21,NCI-H1563,0.741
22,NCI-H1792,0.762
23,NCI-H2085,0.627
24,HCC-15,0.635
25,PC-3 [JPC-3],0.381
26,LC-2-ad,0.862

# Same assay, conditions: first compound 0.03162 µM
row,Cell Line,relative viability
1,LXF-289,0.963
2,HARA,0.44
3,HCC-78,0.337
4,LCLC-97TM1,0.534
5,NCI-H2023,0.412
6,A-427,0.509
7,NCI-H460,0.705
8,NCI-H727,0.601
9,NCI-H1755,0.703
10,NCI-H520,0.265
11,NCI-H2405,0.63
12,SW 1573,0.627
13,201T,0.534
14,NCI-H1975,0.793
15,HCC-827,0.704
16,NCI-H2347,0.531
17,NCI-H1355,0.359

row,Cell Line,relative viability
1,NCI-H650,0.427
2,CAL-12T,0.554
3,NCI-H1666,0.861
4,EPLC-272H,0.274
5,NCI-H23,0.572
6,NCI-H1915,0.606
7,NCI-H1437,0.936
8,NCI-H322M,0.531
9,NCI-H1563,0.717
10,NCI-H1792,0.402
11,NCI-H2085,0.666
12,HCC-15,0.68
13,NCI-H1944,0.423
14,PC-3 [JPC-3],0.643
15,EKVX,0.533
16,LC-2-ad,0.904

# Same assay, conditions: first compound 0.1 µM
row,Cell Line,relative viability
1,LXF-289,0.794
2,BEN,0.325
3,HARA,0.521
4,HCC-78,0.364
5,LCLC-97TM1,0.559
6,NCI-H2023,0.592
7,NCI-H460,0.674
8,NCI-H727,0.637
9,NCI-H1755,0.686
10,NCI-H520,0.261
11,NCI-H2405,0.633
12,SW 1573,0.798
13,201T,0.745
14,NCI-H1975,0.864
15,HCC-827,0.832
16,NCI-H2347,0.447

row,Cell Line,relative viability
1,NCI-H1355,0.42
2,NCI-H650,0.536
3,CAL-12T,0.705
4,NCI-H1666,0.921
5,EPLC-272H,0.281
6,NCI-H23,0.617
7,NCI-H1437,0.899
8,NCI-H322M,0.605
9,NCI-H1563,0.781
10,NCI-H1792,0.71
11,NCI-H2085,0.918
12,HCC-15,0.641
13,PC-3 [JPC-3],0.783
14,EKVX,0.566
15,LC-2-ad,0.929

# Same assay, conditions: first compound 0.3162 µM
row,Cell Line,relative viability
1,LXF-289,0.861
2,BEN,0.26
3,HARA,0.384
4,HCC-78,0.337
5,LCLC-97TM1,0.568
6,NCI-H2023,0.271
7,A-427,0.531
8,NCI-H460,0.558
9,NCI-H727,0.576
10,NCI-H1755,0.687
11,NCI-H520,0.237
12,NCI-H2405,0.609
13,SW 1573,0.66
14,HCC-827,0.84
15,NCI-H2347,0.354
16,NCI-H1355,0.345

row,Cell Line,relative viability
1,NCI-H650,0.344
2,CAL-12T,0.404
3,NCI-H1666,0.792
4,EPLC-272H,0.315
5,NCI-H23,0.575
6,NCI-H1915,0.578
7,NCI-H1437,0.879
8,NCI-H322M,0.551
9,NCI-H1563,0.738
10,NCI-H1792,0.563
11,NCI-H2085,0.47
12,HCC-15,0.588
13,NCI-H1944,0.352
14,PC-3 [JPC-3],0.64
15,EKVX,0.673
16,LC-2-ad,0.738

# Same assay, conditions: first compound 1 µM
row,Cell Line,relative viability
1,LXF-289,0.767
2,BEN,0.436
3,HARA,0.315
4,HCC-78,0.335
5,LCLC-97TM1,0.516
6,NCI-H2023,0.27
7,A-427,0.456
8,NCI-H460,0.522
9,NCI-H727,0.442
10,NCI-H1755,0.649
11,NCI-H520,0.228
12,NCI-H2405,0.659
13,SW 1573,0.559
14,201T,0.729
15,NCI-H1975,0.509
16,HCC-827,0.692
17,NCI-H2347,0.467

row,Cell Line,relative viability
1,NCI-H1355,0.37
2,NCI-H650,0.524
3,CAL-12T,0.536
4,NCI-H1666,0.833
5,EPLC-272H,0.286
6,NCI-H23,0.559
7,NCI-H1915,0.546
8,NCI-H1437,0.858
9,NCI-H322M,0.514
10,NCI-H1563,0.705
11,NCI-H1792,0.9
12,NCI-H2085,0.604
13,HCC-15,0.629
14,NCI-H1944,0.382
15,PC-3 [JPC-3],0.694
16,EKVX,0.599
17,LC-2-ad,0.768
